Data published in PubChem BioAssay AID248 (DTP/NCI, 2004).
Values joined by “and” are separate entries in the source; they are usually repeats but may differ in a detail not shown here. Equal values may be shown once. Toxic doses and inconclusive results are not listed.

Tested on: L1210 leukemia ip in BDF1 mice, survival T/C
Assay: NCI In Vivo Anticancer Drug Screen. Data for tumor model L1210 Leukemia (intraperitoneal) in B6D2F1 (BDF1) mice
Details: endpoint: mean survival time, higher = longer survival
Summary of the method: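 Ratio derived from survival: compound-dosed mice over vehicle-dosed mice, all bearing a transplantable tumor.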

O=C1CN=C(c2ccc[nH]2)c2cc(Cl)ccc2N1
T/C (dose: 1.56 mg/kg/injection, schedule: Q03HX008 (oral), vehicle: saline with Tween-80): 98 % of control
T/C (dose: 1.56 mg/kg/injection, schedule: Q03HX016 (oral), vehicle: saline with Tween-80): 103 % of control
T/C (dose: 1.56 mg/kg/injection, schedule: Q03HX024 (oral), vehicle: saline with Tween-80): 98 % of control
T/C (dose: 3.12 mg/kg/injection, schedule: Q03HX008 (oral), vehicle: saline with Tween-80): 97 % of control
T/C (dose: 3.12 mg/kg/injection, schedule: Q03HX016 (oral), vehicle: saline with Tween-80): 102 % of control
T/C (dose: 3.12 mg/kg/injection, schedule: Q03HX024 (oral), vehicle: saline with Tween-80): 100 % of control
T/C (dose: 6.25 mg/kg/injection, schedule: Q03HX008 (oral), vehicle: saline with Tween-80): 98 % of control
T/C (dose: 6.25 mg/kg/injection, schedule: Q03HX016 (ip), vehicle: other): 105 % of control
T/C (dose: 6.25 mg/kg/injection, schedule: Q03HX016 (oral), vehicle: saline with Tween-80): 98 % of control
T/C (dose: 6.25 mg/kg/injection, schedule: Q03HX024 (ip), vehicle: other): 114 % of control
T/C (dose: 6.25 mg/kg/injection, schedule: Q03HX024 (oral), vehicle: saline with Tween-80): 97 % of control
T/C (dose: 7.13 mg/kg/injection, schedule: Q01DX009 (ip), vehicle: clinical formulation): 102 % of control
T/C (dose: 12.5 mg/kg/injection, schedule: Q03HX008 (oral), vehicle: saline with Tween-80): 102 % of control
T/C (dose: 12.5 mg/kg/injection, schedule: Q03HX016 (ip), vehicle: other): 104 % of control
T/C (dose: 12.5 mg/kg/injection, schedule: Q03HX016 (oral), vehicle: saline with Tween-80): 97 % of control
T/C (dose: 12.5 mg/kg/injection, schedule: Q03HX024 (ip), vehicle: other): 114 % of control
T/C (dose: 12.5 mg/kg/injection, schedule: Q03HX024 (oral), vehicle: saline with Tween-80): 101 % of control
T/C (dose: 14.2 mg/kg/injection, schedule: Q01DX009 (ip), vehicle: clinical formulation): 103 % of control
T/C (dose: 25.0 mg/kg/injection, schedule: Q01DX006 (iv), vehicle: other): 100 % of control
T/C (dose: 25.0 mg/kg/injection, schedule: Q03HX008 (oral), vehicle: saline with Tween-80): 100 % of control and 101 % of control
T/C (dose: 25.0 mg/kg/injection, schedule: Q03HX016 (ip), vehicle: other): 112 % of control
T/C (dose: 25.0 mg/kg/injection, schedule: Q03HX016 (oral), vehicle: saline with Tween-80): 95 % of control and 103 % of control
T/C (dose: 25.0 mg/kg/injection, schedule: Q03HX024 (oral), vehicle: saline with Tween-80): 95 % of control and 98 % of control
T/C (dose: 33.0 mg/kg/injection, schedule: Q01DX015 (ip), vehicle: other): 123 % of control
T/C (dose: 33.0 mg/kg/injection, schedule: Q01DX Z (ip), vehicle: carboxymethylcellulose (CMC)): 120 % of control
T/C (dose: 34.0 mg/kg/injection, schedule: Q01DX009 (ip), vehicle: other): 105 % of control
T/C (dose: 50.0 mg/kg/injection, schedule: Q01DX001 (iv), vehicle: other): 101 % of control
T/C (dose: 50.0 mg/kg/injection, schedule: Q01DX006 (iv), vehicle: other): 102 % of control
T/C (dose: 50.0 mg/kg/injection, schedule: Q01DX009 (ip), vehicle: Klucel (hydroxypropylcellulose) (HPC)): 103 % of control
T/C (dose: 50.0 mg/kg/injection, schedule: Q01DX009 (ip), vehicle: water): 118 % of control
T/C (dose: 50.0 mg/kg/injection, schedule: Q01DX015 (ip), vehicle: other): 121 % of control
T/C (dose: 50.0 mg/kg/injection, schedule: Q01DX Z (ip), vehicle: carboxymethylcellulose (CMC)): 155 % of control
T/C (dose: 50.0 mg/kg/injection, schedule: Q03HX008 (oral), vehicle: saline with Tween-80): 108 % of control
T/C (dose: 50.0 mg/kg/injection, schedule: Q03HX016 (ip), vehicle: other): 122 % of control
T/C (dose: 50.0 mg/kg/injection, schedule: Q03HX016 (oral), vehicle: saline with Tween-80): 112 % of control
T/C (dose: 50.0 mg/kg/injection, schedule: Q03HX024 (ip), vehicle: other): 150 % of control
T/C (dose: 50.0 mg/kg/injection, schedule: Q03HX024 (oral), vehicle: saline with Tween-80): 110 % of control
T/C (dose: 50.0 mg/kg/injection, schedule: Q04DX003 (ip), vehicle: other): 108 % of control
T/C (dose: 50.0 mg/kg/injection, schedule: Q08DX002 (ip), vehicle: other): 96 % of control
T/C (dose: 52.0 mg/kg/injection, schedule: Q01DX009 (ip), vehicle: other): 98 % of control
T/C (dose: 75.0 mg/kg/injection, schedule: Q01DX Z (ip), vehicle: carboxymethylcellulose (CMC)): 174 % of control
T/C (dose: 80.0 mg/kg/injection, schedule: Q01DX009 (ip), vehicle: other): 108 % of control
T/C (dose: 100.0 mg/kg/injection, schedule: Q01DX001 (ip), vehicle: other): 98 % of control
T/C (dose: 100.0 mg/kg/injection, schedule: Q01DX001 (iv), vehicle: other): 101 % of control
T/C (dose: 100.0 mg/kg/injection, schedule: Q01DX001 (oral), vehicle: saline with Tween-80): 102 % of control
T/C (dose: 100.0 mg/kg/injection, schedule: Q01DX006 (iv), vehicle: other): 110 % of control
T/C (dose: 100.0 mg/kg/injection, schedule: Q01DX009 (ip), vehicle: Klucel (hydroxypropylcellulose) (HPC)): 105 % of control
T/C (dose: 100.0 mg/kg/injection, schedule: Q01DX009 (oral), vehicle: saline with Tween-80): 114 % of control
